Consider five compounds from patent US6518339B1, “Aldehyde emission reduction for dibenzylidene sorbitol clarified plastics” (Milliken & Company, priority 2000, dated 2003).

Series [1] in a line: Retort test, UV/VIS measurement of extracted aldehyde (Japanese Pharmacopoeia protocol). Conditions: hydrazide in formulation with 3,4-DMDBS, versus 3,4-DMDBS alone. As to the method: Testing was then conducted to determine the extent of aldehyde extraction from the compounded plastics. The testing procedures were as follows: Retort testing was performed per the Japanese Pharmacopoeia protocol (Japanese Pharmacopoeia, 13th ed. 1996: 76-82). Seven 50-mil plaques of each formulation were cut into 9 strips, rinsed with water, and placed into clean 1 quart Mason jars containing 200 ml of deionized water. The jars were covered with aluminum foil and autoclaved for 1 hour. The extraction water was then analyzed for UV absorbance between 220-240 nm and from 241-350 nm, after a suitable blank had been tested. Powderless latex gloves were worn during the entire procedure.

Series [2] in a line: Water solubility of the hydrazide/aldehyde reaction product. In kind it is physicochemical. The settings on record: tap water; precipitate from adipic dihydrazide and 4-methylbenzaldehyde. As to the method: The reaction product of hydrazide and aldehyde was then tested for water solubility. The test involved the following: To a 10-ounce sample vial was charged 30 ml of tap water and 0.14 g (0.8 mmol) of adipic dihydrazide. This mixture was shaken until a clear, colorless solution was obtained. 4-Methylbezaldehyde (0.14 g, 1.3 mmol) was added to the solution and the mixture was shaken for one minute, immediately precipitating a white solid. The mixture was then allowed to stand for an additional ten minutes, followed by collection of the solids by suction filtration to obtain […] of the (bis 4-methyl)adiponylbis(hydrazone).

Usually melting point stands for the temperature of the solid-liquid transition. Compound `NNC(=O)CCCCCC(=O)NN` [Example 5, Pimelic dihydrazide] came in with a melting point of 183.2 to 185 °C. Besides, in series [1], the “Reduction of peak absorbance between 220-240 nm” value was 70% and the “Reduction of peak absorbance between 241-350 nm” value amounted to 80%. `Cc1ccc(C=NNC(=O)CCCCC(=O)NN=Cc2ccc(C)cc2)cc1` [(bis 4-methyl)adiponylbis(hydrazone)]: the “Water solubility, in words” value in series [2] was “substantially insoluble in water”.

`NNC(=O)CCCCC(=O)NN` [Example 2, Adipic dihydrazide] displayed a melting point of 182.5 to 185.5 °C. On the same count and under the same terms, to `NNC(=O)CCCCCCC(=O)NN` [Example 6, Suberic dihydrazide] belongs 186.9 to 189.1 °C. `NNC(=O)CCCC(=O)NN` [Example 4, Glutaric dihydrazide] registered a melting point of 176.3 to 178.6 °C.
